This is an account of results in US5869499A, “Benzyloxyquinuclidines as substance P antagonists” (Pfizer Inc, priority 1993, dated 1999).

In this experiment the test system is plasma protein extravasation in the ureter in response to capsaicin. Description: Capsaicin-induced plasma extravasation test. It is filed as in vivo, male Hartley guinea pigs. The following applies: dosed orally 1 h before capsaicin challenge, guinea pig ureter. The procedure: In this test, antiinflammatory activity is determined as the percent inhibition of plasma protein extravasation in the ureter of male Hartley quinea pigs (weighing 300-350 g) in response to the intraperitoneal injection of capsaicin into anesthetized animals. The compounds of the present invention are dissolved in 0.1% methyl cellulose/water and dosed orally 1 h before capsaicin challenge. Evans Blue dye (30 mg/kg) is administered intravenously 5 min before capsaicin challenge. The animals are killed 10 min after capsaicin injection and both right and left ureters are removed. The Evans Blue dye is extracted and determined […]. In the above tests, compounds are considered active if the difference in response between the drug-treated animals and a control group receiving the vehicle alone is statistically significant.

Where a name gives a salt, the structure may show the parent alone.

With `O=C(O)[C@@H]1CN2CC[C@H]1[C@H](OCc1cc(C(F)(F)F)cc(C(F)(F)F)c1)[C@@H]2C(c1ccccc1)c1ccccc1` [Example 2, (3S,4R,5S,6S)-3,5-bis(trifluoromethyl)benzyoxy)-6-diphenylmethyl-5-(-1-azabicyclo[2.2.2]octane-3-carboxylic acid hydrochloride], the “ED50 relative to ED50 of non-substituted compound (x)” value is “more than 100 times lower”.
As usually defined, the ED50 is the midpoint of the dose-response relation. Regarding `FC(F)(F)c1cc(CO[C@H]2C3CCN(CC3)[C@H]2C(c2ccccc2)c2ccccc2)cc(C(F)(F)F)c1` [compound (x)], the ED50 (Cavia porcellus, po) turned out to be 2.4 mg/kg.
